Key:
Escherichia coli [1] = assay: Enzyme kinetic constant (Km) against Deacetoxycephalosporin C synthase
Escherichia coli [2] = assay: Enzyme catalytic constant (Kcat) against Deacetoxycephalosporin C synthase

| SMILES | Km (Escherichia coli [1]) [mM] | k cat (Escherichia coli [2]) [s⁻¹] |
| --- | --- | --- |
| CC1(C)S[C@@H]2[C@H](NC(=O)CCC[C@@H](N)C(=O)O)C(=O)N2[C@H]1C(=O)O | 10.3 | 0.442 |
| CC1(C)S[C@@H]2[C@H](NC(=O)CCCCC(=O)O)C(=O)N2[C@H]1C(=O)O | 1.22 | 0.071 |

— ChEMBL document CHEMBL1129113, “Adipoyl-6-aminopenicillanic acid is a substrate for deacetoxycephalosporin C synthase (DAOCS)” (Bioorg Med Chem Lett, 1996)
